Assay results: patent US4420643A, “Extraction of phenols from aqueous solutions” (priority 1982, dated 1983)

Tests used:
[1] = Extraction of phenol from 1% aqueous solution with high boiling solvents alone and with TOPO (Example 3, Table III); assay type: physicochemical; details: 24° C., 10 minutes
Method: A number of high boiling solvents, which would allow recovery of the extracted phenol without the necessity of distilling the solvent, were evaluted and the distribution coefficient calculated for the solvent alone and containing 133 g/l of TOPO. The aqueous solution extracted contained 1% phenol, which was contacted with the solvent or solvent plus TOPO for 10 minutes at 24° C.

[2] = Concentration of TOPO obtainable in the extraction solution; assay type: physicochemical
Source text: It is advantageous in solvent extraction to maximize the loading of the extracted compound in the organic phase. This also permits a higher ratio of aqueous phase to organic phase (A/O) in the extraction process, that is, a greater volume of aqueous solution treated per volume of organic extractant. It is therefore desirable to maximize the concentration of phosphine oxide in the extraction solution. With TOPO, solutions containing in excess of 30% by weight are readily obtained.

[3] = Water solubility of the solvents
[4] = solvent + TOPO 133 g/l (head: TOPA), A/O = 0.5
[5] = solvent + TOPO 133 g/l, A/O = 1

Row | TOPO concentration of solutions readily obtained [2] | Compound | C aq. Final (phenol) [1, 4] | C aq. Final (phenol) [1, 5] | C aq. Final (phenol) ([1]; solvent alone, A/O = 1) | water solubility [3]
1 | – | O=C(c1ccccc1)c1ccccc1 [Benzophenone] | 37 ppm | 85 ppm | – | –
2 | – | CC(C)CC(=O)CC(C)C [DIBK, diisobutylketone, reference compound] | 26 ppm | 60 ppm | 285 ppm | –
3 | – | CC(C)OC(C)C [Diisopropyl ether, diisopropyl ether, reference compound] | – | – | 419 ppm | –
4 | – | c1ccc(Oc2ccccc2)cc1 [Diphenyl ether] | 23 ppm | 55 ppm | 3075 ppm | –
5 | – | c1ccc(Cc2ccccc2)cc1 [Diphenyl methane] | 21 ppm | 59 ppm | – | –
6 | – | CC(=O)CC(C)C [Methyl isobutyl ketone, reference compound] | 24 ppm | 43 ppm | 130 ppm | –
7 | > 30 % by weight | CCCCCCCCP(=O)(CCCCCCCC)CCCCCCCC [TOPO, tri-n-octylphosphine oxide] | – | – | – | –
8 | – | CCCCCCCCCCCCCO [Tridecanol] | 128 ppm | 515 ppm | 531 ppm | –
9 | – | Diisopropyl naphthalene | 18 ppm | 46 ppm | 5590 ppm | negligible water solubility
10 | – | Isopropyl naphthalene | 18 ppm | 45 ppm | 4690 ppm | negligible water solubility
